Test results: US20250171462A1 (NICO Therapeutics, Inc., priority 2022, published 2025)
Like-named read-outs stand apart in the source and are kept apart here.

Target: T1, full-length SARM1 (FL-SARM1) (Homo sapiens, UniProt Q6SZW1)
T1 sequence (Q6SZW1 28-724): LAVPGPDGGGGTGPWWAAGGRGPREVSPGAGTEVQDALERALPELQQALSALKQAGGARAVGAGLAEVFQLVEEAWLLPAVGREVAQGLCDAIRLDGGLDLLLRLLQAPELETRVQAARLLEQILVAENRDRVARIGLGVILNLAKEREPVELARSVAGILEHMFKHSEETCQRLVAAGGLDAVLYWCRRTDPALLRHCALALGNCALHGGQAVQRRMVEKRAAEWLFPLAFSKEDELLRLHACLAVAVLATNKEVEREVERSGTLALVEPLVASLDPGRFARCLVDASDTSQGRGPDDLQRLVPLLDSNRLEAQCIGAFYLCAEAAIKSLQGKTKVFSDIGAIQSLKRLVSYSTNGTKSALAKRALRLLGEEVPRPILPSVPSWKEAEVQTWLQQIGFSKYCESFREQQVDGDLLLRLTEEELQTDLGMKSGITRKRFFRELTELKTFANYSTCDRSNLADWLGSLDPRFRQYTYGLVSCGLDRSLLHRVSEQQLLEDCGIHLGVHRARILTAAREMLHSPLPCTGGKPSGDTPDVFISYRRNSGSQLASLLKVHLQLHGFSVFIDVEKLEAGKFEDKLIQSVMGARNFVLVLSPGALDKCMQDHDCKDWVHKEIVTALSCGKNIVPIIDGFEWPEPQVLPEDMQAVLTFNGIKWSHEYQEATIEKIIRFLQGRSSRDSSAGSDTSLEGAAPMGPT
Experiment: FL-SARM1 cellular lysate assay (NAD/NADH-Glo detection of remaining NAD+, NMN-activated)

[1] = Activity (IC50 class), 11 point curve
[2] = Activity (μM) (IC50), 11 point curve
[3] = read-out: Activity (IC50 class), 11 point curve

Compound | IC50 [1] [µM] | IC50 [2] [µM] | IC50 [3] [µM]
Cc1ccc(NC(=O)CC2CCC2)cc1-c1ccccn1 [Example 168, 2-cyclobutyl-N-(4-methyl-3-pyridin-2-ylphenyl)acetamide] | 1 to 10 | 1.3 | 
Cc1ccc(NC(=O)[C@H]2C[C@H]3C[C@H]3N2)cc1-c1ncc(F)cn1 [Example 170, (1R,3R,5R)—N-(3-(5-fluoropyrimidin-2-yl)-4-methylphenyl)-2-azabicyclo[3.1.0]hexane-3-carboxamide] | 1 to 10 | 2.7 | 
Cc1nnc(CN2[C@@H](C(=O)Nc3ccc(C)c(-c4ncc(F)cn4)c3)C[C@H]3C[C@H]32)o1 [Example 171, (1R,3R,5R)—N-(3-(5-fluoropyrimidin-2-yl)-4-methylphenyl)-2-((5-methyl-1,3,4-oxadiazol-2-yl)methyl)-2-azabicyclo[3.1.0]hexane-3-carboxamide] | > 10 | 18 | 
CSc1ncc(N2[C@@H](C(=O)Nc3ccc(C)c(-c4ncc(F)cn4)c3)C[C@H]3C[C@H]32)nn1 [Example 172, (1R,3R,5R)—N-(3-(5-fluoropyrimidin-2-yl)-4-methylphenyl)-2-(3-(methylthio)-1,2,4-triazin-6-yl)-2-azabicyclo[3.1.0]hexane-3-carboxamide] | 1 to 10 | 6.2 | 
Cc1ccc(NC(=O)[C@H]2C[C@H]3C[C@H]3N2c2cncnn2)cc1-c1ncc(F)cn1 [Example 173, (1R,3R,5R)—N-(3-(5-fluoropyrimidin-2-yl)-4-methylphenyl)-2-(1,2,4-triazin-6-yl)-2-azabicyclo[3.1.0]hexane-3-carboxamide] | 1 to 10 | 4.2 | 
Cc1ccc(NC(=O)[C@@H]2C[C@H](C(F)(F)F)CN2c2ncccn2)cc1-c1cccnn1 [Example 174, (2S,4S)—N-(4-methyl-3-(pyridazin-3-yl)phenyl)-1-(pyrimidin-2-yl)-4-(trifluoromethyl)pyrrolidine-2-carboxamide] | > 10 | 25 | 
Cc1ccc(NC(=O)[C@H]2C[C@@H](C(F)(F)F)CN2c2ncn(C)n2)cc1-c1ncc(F)cn1 [Example 175, (2R,4R)—N-(3-(5-fluoropyrimidin-2-yl)-4-methylphenyl)-1-(1-methyl-1H-1,2,4-triazol-3-yl)-4-(trifluoromethyl)pyrrolidine-2-carboxamide] | 1 to 10 | 2.4 | 
Cc1ccc(NC(=O)[C@@H]2C[C@@H]3[C@H](C2)C3(F)F)cc1-c1cccnn1 [Example 176, trans-6,6-difluoro-N-(4-methyl-3-(pyridazin-3-yl)phenyl)bicyclo[3.1.0]hexane-3-carboxamide] | > 10 | 16 | 
Cc1ccc(NC(=O)[C@H]2C[C@@H]3[C@H](C2)C3(F)F)cc1-c1cccnn1 [Example 177, cis-6,6-difluoro-N-(4-methyl-3-(pyridazin-3-yl)phenyl)bicyclo[3.1.0]hexane-3-carboxamide] | > 10 | 23 | 
Cc1ccc(NC(=O)OCCc2ccccc2)cc1-c1ncccn1 [Example 178, Phenethyl(4-methyl-3-(pyrimidin-2-yl)phenyl)carbamate] | 1 to 10 | 4.3 | 
C[C@@H]1CC2C[C@H](C1)N2C(=O)Nc1ccc(CF)c(-c2ncc(F)cn2)c1 [Example 179, cis-N-(4-(fluoromethyl)-3-(5-fluoropyrimidin-2-yl)phenyl)-3-methyl-6-azabicyclo[3.1.1]heptane-6-carboxamide] |  | 0.03 | 0.0001 to 1
Cc1cnc(-c2cc(NC(=O)N3C4CCCC3C4)ccc2C)nn1 [Example 180, N-(4-methyl-3-(6-methyl-1,2,4-triazin-3-yl)phenyl)-6-azabicyclo[3.1.1]heptane-6-carboxamide] |  | 0.9 | 0.0001 to 1
Cc1cc(F)c(NC(=O)N2C3CCCC2C3)cc1-c1ncncn1 [Example 181, N-(2-fluoro-4-methyl-5-(1,3,5-triazin-2-yl)phenyl)-6-azabicyclo[3.1.1]heptane-6-carboxamide] | 1 to 10 | 7 | 
Cc1cc(F)c(NC(=O)N2CCOc3cccnc3C2C)cc1-c1cccnn1 (stereo not drawn) [Example 182, N-(2-fluoro-4-methyl-5-(pyridazin-3-yl)phenyl)-5-methyl-2,3-dihydropyrido[2,3-f][1,4]oxazepine-4(5H)-carboxamide] | 1 to 10 | 6 | 
Cc1ccc(NC(=O)N2C3C[C@@H](C)C[C@H]2C3)cc1-c1nncc(C(F)(F)F)n1 [Example 184, cis-3-methyl-N-(4-methyl-3-(5-(trifluoromethyl)-1,2,4-triazin-3-yl)phenyl)-6-azabicyclo[3.1.1]heptane-6-carboxamide] |  | 0.07 | 0.0001 to 1
Cc1ccc(NC(=O)N2[C@@H]3C[C@@H](C)C[C@H]2C3)cc1-c1cc(OCF)cnn1 [Example 185, cis-N-(3-(5-(fluoromethoxy)pyridazin-3-yl)-4-methylphenyl)-3-methyl-6-azabicyclo[3.1.1]heptane-6-carboxamide] |  | 0.05 | 0.0001 to 1
COC(C)[C@@]12CC(C[C@@H](C)C1)N2C(=O)Nc1ccc(C)c(-c2ncc(F)cn2)c1 (stereo partly drawn) [Example 190, cis-N-(3-(5-fluoropyrimidin-2-yl)-4-methylphenyl)-1-(1-methoxyethyl)-3-methyl-6-azabicyclo[3.1.1]heptane-6-carboxamide] |  | 0.2 | 0.0001 to 1
Cc1ccc(NC(=O)N2C3C[C@@H](C)C[C@H]2C3)cc1-c1nccnn1 [Example 215, cis-3-methyl-N-(4-methyl-3-(1,2,4-triazin-3-yl)phenyl)-6-azabicyclo[3.1.1]heptane-6-carboxamide] |  | 0.03 | 0.0001 to 1
Cc1ccc(NC(=O)N2C3C[C@@H](C)C[C@H]2C3)cc1-c1cc(Cl)cnn1 [Example 216, cis-N-(3-(5-chloropyridazin-3-yl)-4-methylphenyl)-3-methyl-6-azabicyclo[3.1.1]heptane-6-carboxamide] |  | 0.01 | 0.0001 to 1
Cc1ccc(NC(=O)N2C3C[C@@H](C)C[C@H]2C3)cc1-c1cncc(Cl)n1 [Example 217, cis-N-(3-(6-chloropyrazin-2-yl)-4-methylphenyl)-3-methyl-6-azabicyclo[3.1.1]heptane-6-carboxamide] |  | 0.04 | 0.0001 to 1
COc1cncc(-c2cc(NC(=O)N3C4C[C@@H](C)C[C@H]3C4)ccc2C)n1 [Example 218, cis-N-(3-(6-methoxypyrazin-2-yl)-4-methylphenyl)-3-methyl-6-azabicyclo[3.1.1]heptane-6-carboxamide] |  | 0.03 | 0.0001 to 1
COc1nccnc1-c1cc(NC(=O)N2[C@@H]3C[C@@H](C)C[C@H]2C3)ccc1C [Example 219, cis-N-[3-(3-methoxypyrazin-2-yl)-4-methylphenyl]-3-methyl-6-azabicyclo[3.1.1]heptane-6-carboxamide] | 1 to 10 | 1 | 
Cc1ccc(NC(=O)N2C3C[C@H](C)C[C@@H]2C3)cc1-c1cc(F)cnn1 [Example 220, cis-N-[3-(5-fluoropyridazin-3-yl)-4-methylphenyl]-3-methyl-6-azabicyclo[3.1.1]heptane-6-carboxamide] |  | 0.1 | 0.0001 to 1
Cc1cc(F)c(NC(=O)N2[C@@H]3C[C@@H](C)C[C@H]2C3)cc1-c1cncnn1 [Example 221, cis-N-[2-fluoro-4-methyl-5-(1,2,4-triazin-6-yl)phenyl]-3-methyl-6-azabicyclo[3.1.1]heptane-6-carboxamide] |  | 0.6 | 0.0001 to 1
